Results: article PMC9313812, “The Pseudo‐Natural Product Rhonin Targets RHOGDI” (Angewandte Chemie (International Ed. in English), 2022)

What was measured:
[1] = tested on: HEK293T cells; assay: Cell fractionation: distribution of RHO GTPases; type: cell-based; settings: 10 μM
Description: centrifugation for 20 min in 20000 x g, supernatants were collected and loaded on a Ni-NTA column (Qiagen, Hilden, Germany). The protein was eluted by passing a buffer containing 300 mM imidazole into the Ni-NTA column. The eluted solution was further purified on an analytical Superdex 75 column (10/300 GL, GE-Healthcare, Uppsala, Sweden) using 20 mM HEPES-NaOH pH 7.4, 150 mM NaCl, 3 mM DTT, 5 mM MgCl2 and 0.5% (w/v) Na-cholate as buffer system. Non-prenylated RAC1 and human RHOGDI1 were prepared from E. coli as a GST recombinant protein as described previously.6
For expression of GST-PDEδ, E. coli RosettaTM2 cells transformed with PDE6D expression plasmid (pGex4T5) were inoculated in TB medium containing 100 μg/ml ampicillin and 30 μg/ml chloramphenicol to a total volume of 10 L. The protein expression in E. coli was induced with 0.2 mM IPTG at OD600 = 1.33. Cells were cultivated overnight at 18 ° C with shaking.
Cells then were pelleted by centrifugation at 4000xg for 20 min at 4 ° C and stored at -20 ° C. […]
NIH/3T3 cells were seeded in a 96 plate (10,000 cell per well/ plate name: Essen Bioscience NO 4379). […] Cell migration was monitored using IncuCyte ZOOM for a period of 48 h. The images were analyzed by the Incucyte Scratch Wound Analysis Software. […]

[2] = target: T1, RHOGDI1 (Homo sapiens, UniProt P52565); assay: Fluorescence polarization competition with FITC-labelled GerGer-Rab1 peptide; type: binding; settings: 5 μM FITC-labelled GerGer-Rab1 peptide, 50 μM RHOGDI1
T1 construct: GST; made in house; host or cells: E. coli
Description: Figure 4 Compound 7 a is a RHOGDI1 inhibitor. a) Structure of the affinity probes 8 and 9. b) Affinity‐based enrichment of RHOGDI1 from NIH/3T3 lysates by probe 8 as compared to probe 9 and detection using a RHOGDI1 antibody. c) Competition pulldown was performed as in b in presence of S10a as a competitor. d) Structure of the fluorescent derivative 10. e) Binding of derivative 10 to RHOGDI1‐3. […] Fluorescence polarization measurements using 10 and RHOGDI1‐3. […] Representative data (n=3). P: pellet; S: supernatant. g) Competition of derivative 10 with RAC1. Fluorescence polarization measurements after adding 2 μM prenylated RAC1 or non‐prenylated RAC1 to 2 μM compound 10 and 5 μM RHOGDI1. Representative data (n=3). h) Fluorescence polarization measurements upon titration of 7 a into a mixture of 5 μM FITC‐labelled GerGer‐Rab1 peptide and 50 μM RHOGDI1.

T1 sequence (P52565 whole entry): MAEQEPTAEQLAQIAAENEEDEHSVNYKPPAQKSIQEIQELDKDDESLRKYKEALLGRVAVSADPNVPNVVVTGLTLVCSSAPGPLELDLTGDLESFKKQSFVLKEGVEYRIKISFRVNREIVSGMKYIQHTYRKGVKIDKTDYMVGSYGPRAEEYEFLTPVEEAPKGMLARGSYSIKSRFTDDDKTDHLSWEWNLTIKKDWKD

SMILES | Subcellular localization of membrane-bound RHO GTPases (in words) [1] | Competition with binding of RHOGDI1 to GerGer-RAB1 peptide (in words) [2]
COC(=O)C1(C(CC(=O)c2cccnc2)c2ccccc2)N=C(c2ccc(Br)cc2)C2C(=O)N(C)C(=O)C21 (centres unmarked) [7l] | from the plasma membrane to the endoplasmic reticulum (ER) membrane | –
COC(=O)C1(C(CC(=O)c2ccccc2)c2ccccc2)N=C(c2ccc(Br)cc2)C2C(=O)N(C)C(=O)C21 (centres unmarked) [7a] | – | competed
